Results on four compounds are retold here after ChEMBL document CHEMBL1138810, “Studies of targeting and intracellular trafficking of an anti-androgen doxorubicin-formaldehyde conjugate in PC-3 prostate cancer cells bearing androgen receptor-GFP chimera” (J Med Chem, 2004).

Molecules are shown by their SMILES.

The target in the experiment is T1, Androgen receptor (Homo sapiens, UniProt P10275).
T1 sequence (P10275 whole entry): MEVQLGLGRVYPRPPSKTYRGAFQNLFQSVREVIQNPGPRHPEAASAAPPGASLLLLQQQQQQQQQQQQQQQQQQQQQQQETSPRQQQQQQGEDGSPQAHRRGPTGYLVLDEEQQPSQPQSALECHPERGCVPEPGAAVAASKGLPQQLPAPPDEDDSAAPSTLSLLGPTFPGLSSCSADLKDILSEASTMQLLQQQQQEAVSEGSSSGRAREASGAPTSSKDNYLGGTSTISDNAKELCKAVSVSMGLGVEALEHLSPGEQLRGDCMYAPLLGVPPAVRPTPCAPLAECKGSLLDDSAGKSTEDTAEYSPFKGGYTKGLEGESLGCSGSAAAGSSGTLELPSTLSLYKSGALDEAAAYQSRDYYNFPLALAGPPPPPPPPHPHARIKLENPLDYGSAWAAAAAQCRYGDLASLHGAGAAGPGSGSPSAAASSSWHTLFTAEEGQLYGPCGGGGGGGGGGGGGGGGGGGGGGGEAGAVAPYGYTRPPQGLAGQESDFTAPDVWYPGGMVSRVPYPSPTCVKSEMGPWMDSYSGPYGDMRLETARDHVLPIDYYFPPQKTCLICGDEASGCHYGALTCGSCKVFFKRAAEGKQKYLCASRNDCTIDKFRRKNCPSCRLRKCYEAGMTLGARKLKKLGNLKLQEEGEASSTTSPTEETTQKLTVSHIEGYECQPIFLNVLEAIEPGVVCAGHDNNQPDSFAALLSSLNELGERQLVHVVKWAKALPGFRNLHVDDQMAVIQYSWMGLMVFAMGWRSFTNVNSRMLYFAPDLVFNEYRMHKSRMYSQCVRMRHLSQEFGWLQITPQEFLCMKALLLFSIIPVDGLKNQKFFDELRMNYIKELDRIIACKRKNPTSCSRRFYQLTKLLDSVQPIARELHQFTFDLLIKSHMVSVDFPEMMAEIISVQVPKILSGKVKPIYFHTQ
Description: Inhibition of [3H]mibolerone binding to human Androgen receptor of PC3/AR Cell Lysate.
`CC1(C)C(=O)N(c2ccc(C#N)c(C(F)(F)F)c2)C(=O)N1OCCOCCOCCCc1ccc(O)c(C(N)=O)c1`: the IC50 was 332 nM.
`CC1(C)C(=O)N(c2ccc(C#N)c(C(F)(F)F)c2)C(=O)N1OCC#CCCc1ccc(O)c(C(N)=O)c1` returned an IC50 of 49 nM.
`CCCC(=O)Oc1ccc(COCC#CCN2C(=O)N(c3ccc(C#N)c(C(F)(F)F)c3)C(=O)C2(C)C)cc1C(=O)NCN[C@H]1CC(OC2C[C@](O)(C(=O)CO)Cc3c(O)c4c(c(O)c32)C(=O)c2c(OC)cccc2C4=O)O[C@@H](C)[C@H]1O` (some centres undefined) gave an IC50 of 63 nM.
In turn, `COc1cccc2c1C(=O)c1c(O)c3c(c(O)c1C2=O)C[C@@](O)(C(=O)CO)CC3OC1C[C@H](NCNC(=O)c2cc(COCC#CCN3C(=O)N(c4ccc(C#N)c(C(F)(F)F)c4)C(=O)C3(C)C)ccc2O)[C@H](O)[C@H](C)O1` (some centres undefined) showed an IC50 of 90 nM.
